{
  "source": "patent US20110166206A1",
  "about": "“UBIQUILIN REGULATION OF PRESENILIN ENDOPROTEOLYSIS, AND SUPPRESSION OF POLYGLUTAMINE-INDUCED TOXICITY IN CELLS” (UNIVERSITY OF MARYLAND BIOTECHNOLOGY INSTITUTE, priority 2005, published 2011)",
  "tested_on": "PS1 and PS2 NTF and CTF",
  "assay": "MG132 treatment of UBQLN-transfected PS1 and PS2 stable cell lines, fragment immunoblot",
  "assay_type": "cell-based",
  "settings": "UBQLN1 transfected vs untransfected, MG132",
  "procedure": "FIG. 3. […] (A) PS1 cells lines that were either not induced (lanes 1 and 3) or induced with PonA (lanes 2 and 4) and either left untransfected (lanes 1 and 2) or transfected with UBQLN1 expression plasmids (lanes 3 and 4) were treated for 7 h with MG132 after which protein lysates were collected and analyzed by immunoblotting. […] For clarification, if UBQLN did increase the turnover rate then by blocking degradation, turnover would be stopped and PS fragment levels would be similar, or increase, relative to that of untransfected cells. […] Densitometric analysis was used to quantify the extent of reduction. Each experiment was repeated more than three times and similar trends were observed.\n(B) Same experiment and results as described in (A) except that PS2 inducible cell lines were used to examine PS2 NTF and CTF levels. […] UBQLN exerts greater effects on PS2 probably because it interacts more strongly with PS2, see [43].\nHeLa and HEK293 cells were grown in DMEM supplemented with 10% FBS. PS1 and S2 inducible cell lines were generated by transfection of the pERV-expressing HEK293 cell line (Stratgene, IaIolla, Calif.) with FL human PS2 cDNA under the control of ponasteroneA (PonA)-inducible cassette in plasmid pEGSH (Stratagene). Stable integration of the pEGSH plasmid was achieved by selection for hygromycin resistance. […]",
  "data": [
    {"substance": "UBQLN1: PS-interacting protein ubiquilin-1, overexpressed in cells from a cDNA expression plasmid", "values": [
      {"measurement": "PS1 and PS2 NTF and CTF levels after MG132 treatment", "result": "remained reduced"}
    ]}
  ]
}
